Results published in patent US9089486B2, “Process for the preparation of a pharmaceutical composition comprising ezetimibe” (LEK PHARMACEUTICALS D.D., priority 2009, dated 2015).
Like-named read-outs stand apart in the source and are kept apart here.

Key:
[1] = Particle size of ezetimibe by Malvern Mastersizer; assay type: physicochemical; settings: ezetimibe particles, lactose in the blend dissolved
From the text: After mixing of blend 2 in a high shear mixer, a good particle distribution could be reached. The size of the ezetimibe particles was not essentially changed.

[2] = ambient temperature; cited from earlier work
[3] = cited from earlier work; for solubility in ethanol, methanol, and acetone: organic solvents

O=C1[C@H](CC[C@H](O)c2ccc(F)cc2)[C@@H](c2ccc(O)cc2)N1c1ccc(F)cc1 [Ezetimibe, ezetimibe]
Particle size d(0.1) [1]: 0.43 μm
Particle size d(0.5) [1]: 7.54 μm
Particle size d(0.9) [1]: 16.87 μm
stability [2]: stable
solubility in ethanol, methanol, and acetone [3]: freely to very soluble
solubility in ethanol, methanol, and acetone ([3]; listed as ezetimibe): soluble
solubility in water [3]: practically insoluble
solubility in water ([3]; listed as ezetimibe): poorly soluble
